In test [1] the test system is T2 Arabidopsis thaliana transformant (anti-sense AtPDX4). Description: Phenotype recovery of T2 anti-sense AtPDX4 transformant by vitamin B6's. The test is classed as in vivo. Particulars: 0.5 mg/L, 7 days. The procedure:
Arabidopsis thaliana was cultivated in a soil-filled pot or cultivated in a petri dish by using MS medium (Murashige and Skoog salts, Sigma, U.S.A.) containing 2% sucrose (pH 5.7) and 0.8% agar. In this study, vitamin B6 group (including pyridoxine) was excluded from the vitamin mixture used in the MS medium. The culture pot was incubated at 22° C. in a growth chamber and controlled by 16/8 hours of light and dark cycle.
Above all, in order to select T2 Arabidopsis transformant, MS medium containing 12 mg/L PPT (phosphinothricine, Duchefa, Netherlands) was prepared and T2 seeds were treated at a low temperature (4° C.) for 3 days. 120 of T2 seeds were cultivated on petri dishes containing MS media with or without 0.5 mg/L of pyridoxine-HCl (Sigma, USA), pyridoxamine-2HCl (Sigma, USA), pyridoxal-HCl (Sigma, USA) or pyridoxal-5-phosphate (Sigma, USA).

The test system is the same in test [2]. In words: Pyridoxine auxotrophy test: T2 seeds of anti-sense AtPDX4 transformant on MS medium with pyridoxine. The format is in vivo. Particulars: 2.5 mg/L pyridoxine-HCl; for seeds germinated to grow: MS medium with 12 mg/L PPT. On the procedure:
Arabidopsis thaliana was cultivated in a soil-filled pot or cultivated in a petri dish by using MS medium (Murashige and Skoog salts, Sigma, U.S.A.) containing 2% sucrose (pH 5.7) and 0.8% agar. In this study, vitamin B6 group (including pyridoxine) was excluded from the vitamin mixture used in the MS medium. The culture pot was incubated at 22° C. in a growth chamber and controlled by 16/8 hours of light and dark cycle. Meanwhile, in order to investigate whether the plant transformant becomes pyridoxine auxotroph mutant or not after transformed with anti-sense construct against AtPDX4 gene, T2 seed of Arabidopsis thaliana transformant was collected from T1 transformant and cultivated to estimate the reaction by adding pyridoxine. Above all, MS medium containing 12 mg/L PPT (phosphinothricine, Duchefa, Netherlands) was prepared and T2 seeds were treated at a low temperature (4° C.) for 3 days. 120 of T2 seeds were cultivated respectively on 2 (total 4) petri dishes of MS media (30 seeds per petri dish) with or without 2.5 mg/L of pyridoxine-HCl (Sigma, USA), so as to select T2 Arabidopsis thaliana transformant.

With `Cc1ncc(CO)c(CO)c1O` [pyridoxine, 2-methyl-3-hydroxy-4,5-di(hydroxymethyl)pyridine], the “phenotype of plant transformant” value in test [1] is “not to change in the phenotype remarkably”. The “seeds germinated to grow” value in test [1] (MS medium with 12 mg/L PPT) came to 26 seeds; in test [2] (7 days) it was 22 seeds; in test [2] (19 days), 24 seeds. In addition, the “phenotype compared with wild type Arabidopsis thaliana” value in test [2] (7 days) is “not to change in the phenotype remarkably”. In test [2] (19 days), the “phenotype compared with wild type Arabidopsis” value is “not to change in the phenotype such as growth retardation”.

These data come from patent US20090133153A1, “Polypeptide participating in pyridoxine biosynthesis, polynucleotide encoding the polypetide and those uses” (Genomine, Inc, priority 2004, published 2009).
